Measured values published in US20180360953A1 (priority 2015, published 2018).
“Also recorded” adds a separate entry of the source. Read-outs that look alike come from different tables or passages of the source.

Assays:
spleen cells [1] = format: cell-based, mice
spleen cells [2] = format: cell-based, mice; conditions: spleen cells 24 hrs; Roflumilast 6.5 μM, Sivelestat 46 μM, Sulfasalazine 100 uM, Aspirin 100 μM
Method: In this example, the signaling induced by neutrophil inhibitors were examined to provide insight into mechanisms used to promote immunoglobulin class switching and production of IgG and/or IgA antibodies. In these experiments, the spleen cells of nice mice were cultured 24 hrs without or with neutrophil inhibitor (roflumilast (Phosphodiesterase-4 inhibitor), sivelestat (Neutrophil elastase inhibitor), sulfasalazine (Neutrophil NET inhibitor), or aspirin (COX inhibitor)). Gene expression was analyzed by qRT-PCR for BAFF, AID, TGFb, and IL-10. Mice were divided into 5 groups: (1) Control (Media) (2) Roflumilast (6.5 μM) (3) Sivelestat (46 μM) (4) Sulfasalazine (100 uM) and (5) Aspirin (100 μM).

spleen cells [3] = format: cell-based, mice; conditions: 100 μM
[4] = test system: Spleen cells of naïve C57BL/6 mice; format: cell-based
CD4+ T helper cells = test system: CD4+ T helper cells; design: species or system mice; conditions: mouse, in vivo
PA-specific Ab responses [5] = test system: PA-specific Ab responses; design: species or system mice; conditions: mouse, in vivo
spleen cells [6] = format: cell-based, mice; conditions: 24 hrs, 48 μM
[7] = test system: OVA-specific Ab responses; design: species or system mice; conditions: mouse, in vivo, ip
[8] = test system: mucosal homing receptors CCR9 and a4b7; format: cell-based; conditions: spleen and mesenteric lymph node cells of naïve mice, 48 hours, Alvelestat 50 or 200 mM
Method: Spleen (A) and mesenteric lymph node (B) cells of naïve mice were cultures for 48 hours in the absence or in the presence of the NEI Alvelestat ([…]). The expression of mucosal homing receptors CCR9 and a4b7 by B lymphocytes, and T lymphocytes was analyzed by flow cytometry.

[9] = test system: mucosal homing receptors CCR9 and a4b7; design: species or system mice; conditions: mouse, ip
[10] = test system: Bacillus anthracis lethal toxin (LeTx); format: in vivo, mice; conditions: Day 21
spleen cells [11] = format: cell-based, mice; remark: listed apart in the source
[12] = test system: mesenteric lymph node cells; format: cell-based, mice; conditions: 5-days culture
Method: (§1) Single cell suspensions of spleen cells, mesenteric lymph nodes were resuspended (2×10^6 cells/ml) in RPMI 1640 supplemented with L-glutamine, HEPES, penicillin, streptomycin and 10% heat-inactivated fetal calf serum. Cells were cultured for 1, 5, or 6 days at 37° C. and 5% CO2 in the presence of various doses of the neutrophil elastase inhibitor Sivelestat (ONO-5046, C20H22N2O7S) or Alvelestat (AZD9668, C25H22F3N5O4S) (Selleckchem, Houston, Tex.). In selected experiments, neutrophil elastase inhibitors were added to cells cultured in the presence of Salmonella typhimurium LPS (0.05 μg/ml, Sigma, Saint Louis, Mo.).
(§2) […] described by ELISA, using goat anti-murine IgM, IgG, and IgA antibodies (Southern Biotech, Birmingham, Ala.) and extrapolation against standards.

spleen cells [13] = format: cell-based, mice; conditions: 5 days; for IgG and IgA secreted in culture supernatants of spleen cells / IgM secreted in culture supernatants of spleen cells: increasing doses
Method: as §1, §2

[14] = test system: OVA-specific Ab responses; design: species or system mice; conditions: mouse, in vivo
[15] = test system: F1-V-specific Ab responses; design: species or system mice; conditions: mouse, in vivo
PA-specific Ab responses [16] = test system: PA-specific Ab responses; design: species or system mice; conditions: mouse, in vivo; remark: listed apart in the source
[17] = test system: neutrophils and mast cells; conditions: cited from earlier work

Structure (SMILES): CC(=O)Oc1ccccc1C(=O)O [Acetyl-salicylic acid (ASA), acetylsalicylic acid]
- IgG and IgA production (immunofluorescence on cytospins) (spleen cells [1]): enhanced
- genes involved in immunoglobulin class switching (BAFF, AID, TGFb, and IL-10) (spleen cells [2]): differentially regulate
- IgA secretion by spleen cells (frequency of IgA secreting cells, ELISPOT) (spleen cells [3]): enhanced
- Relative stimulation of IgA secretion [4]: ++
- Dose effect (Relative stimulation of IgA) ([4]; 10 uM): uM (++)
- Dose effect (Relative stimulation of IgA) ([4]; 100 uM): uM (++)
- Dose effect (Relative stimulation of IgA) ([4]; 500 uM): uM (+)

Structure (SMILES): Cc1c(-c2ccnn2C)cc(C(=O)NCc2ccc(S(C)(=O)=O)cn2)c(=O)n1-c1cccc(C(F)(F)F)c1 [Alvelestat, alvelestat]
- all CD4+ T helper cytokine responses, including Th1, Th2, Th17 and Tfh (CD4+ T helper cells): significantly increased
- frequencies of IL-4+ CD4+ cells (CD4+ T helper cells): lower frequencies
- frequencies of IL-10+ CD4+ T cells and IL-17+ CD4+ T cells (CD4+ T helper cells): higher frequencies
- frequencies of Th1 cells (IFNγ+ CD4+ T cells and TNFα+ CD4+ T cells) (CD4+ T helper cells): same frequencies
- frequencies of Th2 cells producing IL-5 (CD4+ T helper cells): similar
- frequencies of antigen-specific IL-21+ CD4 T cells (CD4+ T helper cells): same frequencies
- High affinity PA-specific IgG1 and IgA Ab responses (PA-specific Ab responses [5]): high affinity antibodies; also recorded: promotes high affinity Abs
- titers of PA-specific IgG1 and IgA responses (PA-specific Ab responses [5]): enhanced
- AID mRNA synthesis (spleen cells [6]): stimulated
- kinetic and magnitude of OVA-specific serum IgG [7]: enhances
- mucosal IgA responses in the gut (OVA-specific, fecal extracts) [7]: promotes
- expression of gut homing receptors (CCR9 and a4b7) by B and T cells in vitro [8]: promotes expression
- expression of gut homing receptors (CCR9 and a4b7) by B and T cells in vivo [9]: promotes expression
- serum anti-PA neutralizing antibody titers ([10]; sublingual EdTx and NEI, listed as NEI): significantly increased; also recorded: enhanced neutralizing activity
- serum anti-PA neutralizing antibodies ([10]; sublingual antigen plus NEI): low and comparable levels
- frequency of CD4+ T cells (spleen cells [11]): increased
- IgG and IgA in culture supernatants of mesenteric lymph node cells [12]: higher levels
- IgA production by spleen cells cultured in the presence of LPS (spleen cells [13]; LPS 0.05 μg/ml): significant increase
- IgG and IgA secreted in culture supernatants of spleen cells (spleen cells [13]): increased
- IgM secreted in culture supernatants of spleen cells (spleen cells [13]): reduced
- OVA-specific serum IgE response [14]: no IgE response was detected
- OVA-specific serum IgE responses induced by EdTx [14]: significantly reduced; also recorded: suppresses
- OVA-specific serum IgG1 responses in the absence of EdTx [14]: increased
- OVA-specific serum IgG1 responses induced by EdTx [14]: increased the magnitude; also recorded: enhances
- OVA-specific serum IgG2a/c, or IgG3 in the absence of EdTx [14]: no evidence that the NEI enhanced
- OVA-specific serum IgG2b responses induced by EdTx as adjuvant [14]: significantly increased; also recorded: enhances
- antigen-specific IgA in gut (fecal extracts) [14]: did not stimulate
- antigen-specific IgA responses in vaginal washes [14]: only non-significant levels
- fecal IgA responses [14]: resulted in induction of fecal IgA responses
- vaginal IgG responses induced by EdTx as adjuvant [14]: enhance

Structure (SMILES): O=C(Nc1c(Cl)cncc1Cl)c1ccc(OC(F)F)c(OCC2CC2)c1 [Roflumilast]
- genes involved in immunoglobulin class switching (BAFF, AID, TGFb, and IL-10) (spleen cells [2]): differentially regulate
- Relative stimulation of IgA secretion [4]: +
- Dose effect (Relative stimulation of IgA) ([4]; 0.062 uM): uM (−)
- Dose effect (Relative stimulation of IgA) ([4]; 0.62 uM): uM (−)
- Dose effect (Relative stimulation of IgA) ([4]; 6.2 uM): uM (+)

Structure (SMILES): CC(C)(C)C(=O)Oc1ccc(S(=O)(=O)Nc2ccccc2C(=O)NCC(=O)O)cc1 [Sivelestat, sivelestat]
- IgG and IgA production (immunofluorescence on cytospins) (spleen cells [1]): larger increases
- IgA responses by a sublingual vaccine [15]: promotes
- genes involved in immunoglobulin class switching (BAFF, AID, TGFb, and IL-10) (spleen cells [2]): differentially regulate
- PA-specific salivary IgA response (PA-specific Ab responses [16]): enhances
- PA-specific serum IgA response (PA-specific Ab responses [16]): enhances
- PA-specific serum IgG1 response (PA-specific Ab responses [16]): enhances
- PA-specific serum IgG2c response (PA-specific Ab responses [16]): did not affect
- AID mRNA synthesis (spleen cells [6]): stimulated
- IgA secretion by spleen cells (frequency of IgA secreting cells, ELISPOT) (spleen cells [3]): enhanced
- secretion of IgG and IgA by splenocytes cultured in the presence of LPS (spleen cells [13]; LPS 0.05 μg/ml): increased
- IgG and IgA secreted in culture supernatants of spleen cells (spleen cells [13]): dose-dependent increase
- IgM secreted in culture supernatants of spleen cells (spleen cells [13]): reduced
- Relative stimulation of IgA secretion [4]: ++
- Dose effect (Relative stimulation of IgA) ([4]; 4.6 uM): uM (+)
- Dose effect (Relative stimulation of IgA) ([4]; 46 uM): uM (++)
- Dose effect (Relative stimulation of IgA) ([4]; 230 uM): uM (++)

Structure (SMILES): O=C(O)c1cc(/N=N/c2ccc(S(=O)(=O)Nc3ccccn3)cc2)ccc1O [Sulfasalazine, sulfasalazine]
- genes involved in immunoglobulin class switching (BAFF, AID, TGFb, and IL-10) (spleen cells [2]): differentially regulate
- ET formation in neutrophils and mast cells [17]: significantly inhibit
- IgA secretion by spleen cells (frequency of IgA secreting cells, ELISPOT) (spleen cells [3]): enhanced
- Relative stimulation of IgA secretion [4]: +++
- Dose effect (Relative stimulation of IgA) ([4]; 10 uM): uM (++)
- Dose effect (Relative stimulation of IgA) ([4]; 100 uM): uM (+++)
- Dose effect (Relative stimulation of IgA) ([4]; 1000 uM): uM (+)

Structure (SMILES): O=C1CCC(N2C(=O)c3ccccc3C2=O)C(=O)N1 (stereo not drawn) [thalidomide]
- ET formation in neutrophils and mast cells [17]: significantly inhibit
